Experimental data as given in ChEMBL document CHEMBL1201862, “PubChem BioAssay data set” (2004).
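Step 1: Grow cells in 96-well plates. Step 2: Expose to compound for 48 hours at 5 concentrations. Step 3: Interpolate endpoints linearly; if unreached, use highest concentration. The concentration for 50% growth inhibition is given as GI50.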 Active and inactive are the calls of the source. Rule as the data show it: active = GI50 up to about 1.1 µM and inactive = higher.

What was measured:
Experiment in all cases: DTP human tumour cell line panel, 48 h
[1] = system: SK-MEL-2
[2] = system: COLO 205
[3] = system: MCF7
[4] = system: M14
[5] = system: SN12C
[6] = system: OVCAR-3
[7] = system: NCI/ADR-RES
[8] = system: CAKI-1
[9] = system: NCI-H522
[10] = system: NCI-H23
[11] = system: SK-OV-3
[12] = system: HCC 2998
[13] = system: T47D
[14] = system: HT-29
[15] = system: BT-549
[16] = system: UACC-257
[17] = system: TK-10
[18] = system: SR
[19] = system: 786-0
[20] = system: NCI-H460
[21] = system: RXF 393
[22] = system: DU-145
[23] = system: UO-31
[24] = system: A549
[25] = system: RPMI-8226
[26] = system: K562
[27] = system: MOLT-4
[28] = system: SW-620
[29] = system: OVCAR-4
[30] = system: HL-60
[31] = system: SF-295
[32] = system: HOP-62
[33] = system: MDA-N
[34] = system: NCI-H226
[35] = system: HCT-15
[36] = system: PC-3
[37] = system: HCT-116
[38] = system: KM12
[39] = system: ACHN
[40] = system: LOX IMVI
[41] = system: SF-539
[42] = system: MDA-MB-231
[43] = system: EKVX
[44] = system: IGROV-1
[45] = system: OVCAR-8
[46] = system: SF-268
[47] = system: OVCAR-5
[48] = system: Malme-3M
[49] = system: UACC-62
[50] = system: MDA-MB-435
[51] = system: HOP-92
[52] = system: SNB-75
[53] = system: U-251
[54] = system: SK-MEL-5
[55] = system: SK-MEL-28
[56] = system: A498
[57] = system: CCRF-CEM
[58] = system: SNB-19
[59] = system: Hs-578T

Which GI50 [1] does the source give for `Oc1cccc2c(Br)ccnc12` here?
Its GI50 is 11.4 µM (inactive).

And the GI50 [2]?
The GI50 was 11.2 µM (inactive).

And the GI50 [3]?
Its GI50 is 4.43 µM (inactive).

And the GI50 [4]?
The GI50 was 1.98 µM (inactive).

And the GI50 [5]?
Its GI50 is 3.62 µM (inactive).

What about the GI50 [6] of the same compound?
Its GI50 is 697 nM (active).

What about the GI50 [7] of the same compound?
The GI50 was 2.08 µM (inactive).

And the GI50 [8]?
The GI50 was 12.3 µM (inactive).

And the GI50 [9]?
The GI50 was 3.16 µM (inactive).

What about the GI50 [10] of the same compound?
The GI50 was 3.94 µM (inactive).

What about the GI50 [11] of the same compound?
Its GI50 is 26.7 µM (inactive).

What about the GI50 [12] of the same compound?
Its GI50 is 14.7 µM (inactive).

And the GI50 [13]?
The GI50 was 3.17 µM (inactive).

And the GI50 [14]?
Its GI50 is 5.4 µM (inactive).

What about the GI50 [15] of the same compound?
Its GI50 is 8.93 µM (inactive).

And the GI50 [16]?
The GI50 was 2.48 µM (inactive).

What about the GI50 [17] of the same compound?
The GI50 was 32.7 µM (inactive).

And the GI50 [18]?
Its GI50 is 378 nM (active).

What about the GI50 [19] of the same compound?
Its GI50 is 17.1 µM (inactive).

What about the GI50 [20] of the same compound?
Its GI50 is 3.57 µM (inactive).

And the GI50 [21]?
The GI50 was 4.65 µM (inactive).

What about the GI50 [22] of the same compound?
The GI50 was 3.89 µM (inactive).

What about the GI50 [23] of the same compound?
Its GI50 is 2.84 µM (inactive).

And the GI50 [24]?
Its GI50 is 4.34 µM (inactive).

What about the GI50 [25] of the same compound?
Its GI50 is 665 nM (active).

What about the GI50 [26] of the same compound?
The GI50 was 593 nM (active).

And the GI50 [27]?
Its GI50 is 855 nM (active).

What about the GI50 [28] of the same compound?
Its GI50 is 3.51 µM (inactive).

What about the GI50 [29] of the same compound?
Its GI50 is 2.55 µM (inactive).

What about the GI50 [30] of the same compound?
The GI50 was 181 nM (active).

What about the GI50 [31] of the same compound?
The GI50 was 1.46 µM (inactive).

What about the GI50 [32] of the same compound?
The GI50 was 8.73 µM (inactive).

And the GI50 [33]?
Its GI50 is 5.71 µM (inactive).

And the GI50 [34]?
The GI50 was 7.1 µM (inactive).

What about the GI50 [35] of the same compound?
The GI50 was 2270 nM.

And the GI50 [36]?
The GI50 was 4.17 µM (inactive).

What about the GI50 [37] of the same compound?
Its GI50 is 1.4 µM (inactive).

What about the GI50 [38] of the same compound?
Its GI50 is 5.19 µM (inactive).

And the GI50 [39]?
The GI50 was 2.58 µM (inactive).

And the GI50 [40]?
The GI50 was 713 nM (active).

What about the GI50 [41] of the same compound?
The GI50 was 3.63 µM (inactive).

And the GI50 [42]?
Its GI50 is 2.75 µM (inactive).

What about the GI50 [43] of the same compound?
Its GI50 is 2.88 µM (inactive).

And the GI50 [44]?
Its GI50 is 2.12 µM (inactive).

What about the GI50 [45] of the same compound?
The GI50 was 1.22 µM (inactive).

And the GI50 [46]?
Its GI50 is 767 nM (active).

What about the GI50 [47] of the same compound?
The GI50 was 6.08 µM (inactive).

What about the GI50 [48] of the same compound?
Its GI50 is 8.38 µM (inactive).

And the GI50 [49]?
The GI50 was 1.47 µM (inactive).

What about the GI50 [50] of the same compound?
The GI50 was 5.92 µM (inactive).

What about the GI50 [51] of the same compound?
Its GI50 is 5.71 µM (inactive).

And the GI50 [52]?
The GI50 was 7.59 µM (inactive).

And the GI50 [53]?
Its GI50 is 2.28 µM (inactive).

What about the GI50 [54] of the same compound?
The GI50 was 2.74 µM (inactive).

What about the GI50 [55] of the same compound?
The GI50 was 12.3 µM (inactive).

What about the GI50 [56] of the same compound?
Its GI50 is 7.82 µM (inactive).

What about the GI50 [57] of the same compound?
Its GI50 is 380 nM (active).

What about the GI50 [58] of the same compound?
The GI50 was 7.71 µM (inactive).

What about the GI50 [59] of the same compound?
The GI50 was 8.55 µM (inactive).
